Reference: paper PMC10052474, “Carbon Fixation in the Chemolithoautotrophic Bacterium Aquifex aeolicus Involves Two Low-Potential Ferredoxins as Partners of the PFOR and OGOR Enzymes” (Life, 2023)

What was measured:
[1] = target: 2-oxoglutarate:ferredoxin oxidoreductase (OGOR) of Aquifex aeolicus, five-subunit complex FORαβγδε (Aquifex aeolicus (endogenous in A. aeolicus VF5 cells)) (UniProt O67229); assay: native gel or EMSA; 3-12% Blue Native gel of elution fraction 2 of the Fd7Strep pull-down; in-gel PFOR and OGOR activity at roughly 300 kDa; proteins of the activity bands identified by mass spectrometry; for the self-association: dimer of the αβγδε protomer, from the estimated mass
[2] = target: T1, OGOR (2-oxoglutarate:ferredoxin oxidoreductase, Forαβγδε) (Aquifex aeolicus, UniProt O67229+O67230+O67231); assay: spectrophotometric methyl viologen reduction at […] nm, enriched fraction; in-gel activity; format: biochemical; conditions: 10 mM 2-oxoglutarate, 0.1 mM CoA, 0.2 mM TPP, 1 mM MgCl2, 5 mM methyl viologen, pH 8, 80 °C, anaerobic; decarboxylation direction
T1 construct: gene forA2; native, enriched from soluble fraction (DEAE, then Bio-Gel HTP); dimer of pentamers (αβγδε)2, about 250-300 kDa; Aq_1163 may co-migrate; with 2-oxoglutarate:ferredoxin oxidoreductase subunit epsilon (ferredoxin-like, Fd2); 2-oxoglutarate:ferredoxin oxidoreductase subunit delta

[3] = target: T2, Fd7Strep (recombinant ferredoxin 7) (Aquifex aeolicus, UniProt Z9T2O6C3G9); assay: EPR spectroscopy and UV-visible absorption; format: binding; conditions: purified protein, dithionite-reduced, […] K
T2 construct: full length with C-terminal Strep-tag II, expressed in E. coli MG1655 ΔiscR; native protein 80 residues, apoprotein 9130 Da; native N-terminus […]
T2 sequence (Z9T2O6C3G9 1-80): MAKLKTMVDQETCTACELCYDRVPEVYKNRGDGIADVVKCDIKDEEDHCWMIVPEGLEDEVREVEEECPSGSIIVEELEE

[4] = target: T3, PFOR (pyruvate:ferredoxin oxidoreductase, Porαβγδε) (Aquifex aeolicus, UniProt O67254+O67255+O67256); assay: spectrophotometric methyl viologen reduction at […] nm, enriched fraction; in-gel activity; format: biochemical; conditions: 10 mM pyruvate, 0.1 mM CoA, 0.2 mM TPP, 1 mM MgCl2, 5 mM methyl viologen, pH 8, 80 °C, anaerobic; decarboxylation direction
T3 construct: gene forA1; native, enriched from soluble fraction (DEAE step); dimer of pentamers (αβγδε)2, about 250-300 kDa; with pyruvate:ferredoxin oxidoreductase subunit epsilon (ferredoxin-like, Fd3); pyruvate:ferredoxin oxidoreductase subunit delta

[5] = target: pyruvate:ferredoxin oxidoreductase (PFOR) of Aquifex aeolicus, five-subunit complex PORαβγδε (Aquifex aeolicus (endogenous in A. aeolicus VF5 cells)) (UniProt O67254); assay: native gel or EMSA; 3-12% Blue Native gel of elution fraction 2 of the Fd7Strep pull-down; in-gel PFOR and OGOR activity at roughly 300 kDa; proteins of the activity bands identified by mass spectrometry; for the self-association: dimer of the αβγδε protomer, from the estimated mass

T3 sequence (O67255 entry or part of it): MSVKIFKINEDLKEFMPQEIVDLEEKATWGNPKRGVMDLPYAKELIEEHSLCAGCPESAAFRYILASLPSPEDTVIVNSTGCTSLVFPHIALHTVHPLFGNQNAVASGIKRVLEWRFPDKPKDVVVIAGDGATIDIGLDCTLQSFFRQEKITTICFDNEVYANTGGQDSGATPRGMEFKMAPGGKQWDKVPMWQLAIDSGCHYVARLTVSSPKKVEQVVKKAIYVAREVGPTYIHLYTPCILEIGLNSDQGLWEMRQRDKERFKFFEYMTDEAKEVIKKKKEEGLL
T3 sequence (O67254 entry or part of it): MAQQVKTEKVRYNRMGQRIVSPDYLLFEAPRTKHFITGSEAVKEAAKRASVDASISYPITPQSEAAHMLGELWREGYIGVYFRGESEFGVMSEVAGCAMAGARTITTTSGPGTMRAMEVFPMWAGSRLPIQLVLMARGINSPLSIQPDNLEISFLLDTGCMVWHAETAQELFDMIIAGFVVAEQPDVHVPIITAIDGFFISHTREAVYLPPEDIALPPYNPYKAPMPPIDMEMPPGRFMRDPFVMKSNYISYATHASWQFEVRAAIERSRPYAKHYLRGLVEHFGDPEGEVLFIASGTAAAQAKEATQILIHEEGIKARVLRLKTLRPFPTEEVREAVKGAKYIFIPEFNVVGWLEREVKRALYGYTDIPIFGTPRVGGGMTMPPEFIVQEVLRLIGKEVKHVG
T3 sequence (O67256 entry or part of it): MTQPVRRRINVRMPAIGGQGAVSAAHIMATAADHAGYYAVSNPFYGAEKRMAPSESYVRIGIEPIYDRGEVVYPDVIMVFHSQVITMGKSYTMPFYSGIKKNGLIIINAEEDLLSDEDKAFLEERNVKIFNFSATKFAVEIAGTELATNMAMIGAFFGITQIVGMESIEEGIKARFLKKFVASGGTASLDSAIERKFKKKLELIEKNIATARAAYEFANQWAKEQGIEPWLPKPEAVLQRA
T3 sequence (O67251 whole entry, further chain): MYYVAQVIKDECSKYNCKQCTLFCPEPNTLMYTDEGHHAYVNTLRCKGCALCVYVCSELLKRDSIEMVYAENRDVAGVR
T3 sequence (O67252 entry or part of it, further chain): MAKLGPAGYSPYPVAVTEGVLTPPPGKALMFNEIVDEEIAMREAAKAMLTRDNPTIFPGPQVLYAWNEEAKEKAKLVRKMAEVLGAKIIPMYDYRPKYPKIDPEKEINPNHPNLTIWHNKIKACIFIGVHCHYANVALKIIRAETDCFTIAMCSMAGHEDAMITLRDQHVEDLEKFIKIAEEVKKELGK
T1 sequence (O67229 1-389): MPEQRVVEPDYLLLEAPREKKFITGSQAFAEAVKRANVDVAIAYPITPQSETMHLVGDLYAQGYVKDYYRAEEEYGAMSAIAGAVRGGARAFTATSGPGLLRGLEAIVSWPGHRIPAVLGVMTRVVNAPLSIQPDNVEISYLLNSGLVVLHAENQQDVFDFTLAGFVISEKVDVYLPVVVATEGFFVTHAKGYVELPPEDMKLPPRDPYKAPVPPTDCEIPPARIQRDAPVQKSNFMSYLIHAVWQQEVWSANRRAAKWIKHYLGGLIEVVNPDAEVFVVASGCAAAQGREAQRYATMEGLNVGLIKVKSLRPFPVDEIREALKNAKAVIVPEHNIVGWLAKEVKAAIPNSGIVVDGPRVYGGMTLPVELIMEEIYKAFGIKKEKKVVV
T1 sequence (O67230 1-289): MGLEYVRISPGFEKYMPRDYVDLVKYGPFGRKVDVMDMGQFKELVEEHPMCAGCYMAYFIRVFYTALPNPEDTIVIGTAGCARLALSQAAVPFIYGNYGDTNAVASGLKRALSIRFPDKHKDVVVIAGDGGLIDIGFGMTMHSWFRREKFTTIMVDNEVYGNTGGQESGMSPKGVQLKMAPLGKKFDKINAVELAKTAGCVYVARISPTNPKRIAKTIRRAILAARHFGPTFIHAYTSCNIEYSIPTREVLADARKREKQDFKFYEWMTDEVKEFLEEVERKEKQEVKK
T1 sequence (O67231 1-230): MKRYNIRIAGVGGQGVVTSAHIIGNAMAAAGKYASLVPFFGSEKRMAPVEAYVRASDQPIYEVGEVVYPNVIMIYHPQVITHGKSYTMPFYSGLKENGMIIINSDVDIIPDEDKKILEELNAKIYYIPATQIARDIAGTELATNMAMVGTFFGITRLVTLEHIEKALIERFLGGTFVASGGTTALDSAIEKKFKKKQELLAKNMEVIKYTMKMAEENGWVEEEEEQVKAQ
T1 sequence (O67228 29-244 partner limits assumed): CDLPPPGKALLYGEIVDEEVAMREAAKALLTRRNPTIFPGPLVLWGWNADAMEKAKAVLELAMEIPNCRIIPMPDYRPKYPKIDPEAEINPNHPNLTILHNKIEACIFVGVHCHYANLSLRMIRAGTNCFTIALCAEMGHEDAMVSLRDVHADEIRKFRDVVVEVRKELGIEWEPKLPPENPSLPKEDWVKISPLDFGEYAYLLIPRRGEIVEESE
T1 sequence (O67232 whole entry partner): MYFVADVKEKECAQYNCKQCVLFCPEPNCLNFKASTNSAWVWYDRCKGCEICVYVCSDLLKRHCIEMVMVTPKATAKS

Compound: 2-oxoglutarate:ferredoxin oxidoreductase (OGOR) of Aquifex aeolicus, five-subunit complex FORαβγδε (from UniProt O67229 1-389; O67230 1-289; O67231 1-230; O67232 1-78; O67228 1-244)
- stoichiometry N [1]: 2

Compound: O=C(O)CCC(=O)C(=O)O [2-oxoglutarate]
- spectrophotometric methyl viologen reduction at 604 nm, enriched fraction; in-ge [2]: pyruvate for PFOR and 2-oxoglutarate for OGOR

Compound: [S]12[Fe]3[S]4[Fe]1[S]1[Fe]2[S]3[Fe]41 [[4Fe-4S] cluster]
- EPR spectroscopy and UV-visible absorption [3]: confirming the presence of one [4Fe-4S] center per Fd molecule

Compound: CC(=O)C(=O)O [pyruvate]
- spectrophotometric methyl viologen reduction at 604 nm, enriched fraction; in-ge [4]: pyruvate for PFOR and 2-oxoglutarate for OGOR

Compound: pyruvate:ferredoxin oxidoreductase (PFOR) of Aquifex aeolicus, five-subunit complex PORαβγδε (from UniProt O67254 1-404; O67255 1-286; O67256 1-241; O67251 1-79; O67252 1-189)
- stoichiometry N [5]: 2
